In article PMC3834726 (Clinical cancer research : an official journal of the …, 2012):
Read-outs that look alike come from different tables or passages of the source.

How the values were obtained:
blood 20S proteasome = test: Pharmacodynamics: blood 20S proteasome activity; format: in vivo, human
advanced malignancies = test: Tumor response; format: in vivo, human
[1] = including patients on dialysis; cited from earlier work
[2] = potent inhibitor of CYP2C19; cited from earlier work
[3] = human, in vivo

## CC(C)C[C@H](NC(=O)[C@H](Cc1ccccc1)NC(=O)c1cnccn1)B(O)O [bortezomib, Bortezomib]
Blood 20S proteasome; 0.5 mg/m^2, severe hepatic impairment (data not shown)
  Magnitude of percent inhibition of blood 20S proteasome activity: lower than that observed at the higher dose levels
Blood 20S proteasome; across dose levels and hepatic function groups, first post-dose time point
  Time of maximum mean percent inhibition of blood 20S proteasome activity: 1 h
Blood 20S proteasome; normal hepatic function group, 1.3 mg/m^2, day 1
  Mean percent inhibition of 20S proteasome activity at 24 hours post dose: approximately 31%
Advanced malignancies; all hepatic function groups
  Patients achieving stable disease: five
Advanced malignancies; all patients
  Patients with progressive disease as best response: 35
  Study discontinuation due to disease progression: 37 (61%) n (%)
Advanced malignancies; mild impairment group
  Study discontinuation due to disease progression: 11 (65%) n (%)
Advanced malignancies; moderate impairment group
  Study discontinuation due to disease progression: 9 (75%) n (%)
Advanced malignancies; normal function group
  Study discontinuation due to disease progression: 8 (57%) n (%)
Advanced malignancies; severe impairment group
  Study discontinuation due to disease progression: 9 (50%) n (%)
All patients
  Deaths during the study: 15
  Died during treatment (reason for study discontinuation): 2 (3%) n (%)
All patients, N=61
  On-study deaths: 15 (25) n (%)
All patients, of 15 deaths
  Deaths due to disease progression: 12
human, in vivo
  Anorexia, any grade: 19 (31) n (%)
  Any AE: 59 (97) n (%)
  Any drug-related AE: 40 (66) n (%)
  Any grade ≥3 AE: 49 (80) n (%)
  Any grade ≥4 AE: 22 (36) n (%)
  Any serious AE: 28 (46) n (%)
  Decreased platelet count, any grade: 18 (30) n (%)
  Decreased platelet count, grade ≥3: 7 (11) n (%)
  Discontinuation due to grade 3 hypotension: 1 patient
  Discontinuation due to grade 4 elevated blood bilirubin: 2 patients
  Dyspnea, any grade: 19 (31) n (%)
  Elevated AST, incidence: 7%
  Elevated blood bilirubin, rate: 7%
  Fatigue, any grade: 31 (51) n (%)
  Fatigue, grade ≥3: 9 (15) n (%)
  Increased AST, grade ≥3: 6 (10) n (%)
  Increased blood bilirubin, grade ≥3: 7 (11) n (%)
  Nausea, any grade: 24 (39) n (%)
  Rate of grade ≥3 AEs: 71%
  Rate of grade ≥4 AEs: 14%
In vivo
  Dose-limiting toxicity (DLT): none of these events met the protocol-defined criteria for DLT
  Relation of elevations in liver function test parameters to drug: not considered to be drug-related
Mild impairment, 1.0 mg/m^2, n=6
  On-study deaths: 0 n (%)
Mild impairment, 1.3 mg/m^2, n=11
  On-study deaths: 4 (36) n (%)
Moderate impairment, 0.7 mg/m^2, n=9
  On-study deaths: 2 (22) n (%)
Moderate impairment, 1.0 mg/m^2, n=3
  On-study deaths: 0 n (%)
Normal hepatic function, 1.3 mg/m^2, N=14
  On-study deaths: 2 (14) n (%)
Severe impairment, 0.5 mg/m^2, n=5
  On-study deaths: 2 (40) n (%)
Severe impairment, 0.7 mg/m^2, n=6
  On-study deaths: 3 (50) n (%)
Severe impairment, 1.0 mg/m^2, n=7
  On-study deaths: 2 (29) n (%)
[1]
  Pharmacokinetics in varying grades of renal impairment: not altered
[2]
  Bortezomib exposure on co-administration of omeprazole: unaffected
[3]
  Disposition kinetics: multi-exponential disposition kinetics
  Dose calculated to match exposures at 1.3 mg/m^2 in normal hepatic function: approximately 0.8 mg/m^2
  Increase in dose-normalized AUC (systemic exposure): approximately 60%
  Increase in mean dose-normalized AUC0-tlast: approximately 60%
  Observed mean increase in dose-normalized AUC relative to normal hepatic function group: 1.6 fold
